In ChEMBL document CHEMBL1130436, “Synthesis and opioid activity of conformationally constrained dynorphin A analogues. 2. Conformational constraint in the "address" sequence” (J Med Chem, 1997):

Columns and labels:
[1] = target: T1, Kappa-type opioid receptor (Cavia porcellus, UniProt P41144); assay: Binding affinity of compound was measured on Opioid receptor kappa 1 by competitive inhibition of radioligand [3H]diprenorphine using cloned receptors transiently expressed on COS-7 (monkey kidney) cells; format: cell-based
[2] = target: T2, Delta-type opioid receptor (Homo sapiens, UniProt P41143); assay: Binding affinity of compound was measured on Opioid receptor delta 1 by competitive inhibition of radioligand [3H]DPDPE using cloned receptors transiently expressed on COS-7 (monkey kidney) cells; format: cell-based
[3] = target: T3, Mu-type opioid receptor (Cavia porcellus, UniProt P97266); assay: Binding affinity of compound was measured on Opioid receptor mu 1 by competitive inhibition of radioligand [3H]DAMGO using cloned receptors transiently expressed on COS-7 (monkey kidney) cells; format: cell-based
[4] = species on record: Cavia porcellus; assay: Opioid activity in guinea pig ileum; format: functional
[5] = target: T1, Kappa-type opioid receptor; assay: Binding affinity to Opioid receptor kappa 1 by competitive inhibition of radioligand [3H]diprenorphine using cloned receptors transiently expressed on CHO cells; format: cell-based
[6] = target: T3, Mu-type opioid receptor; assay: Binding affinity to Opioid receptor mu 1 by competitive inhibition of radioligand [3H]DAMGO using cloned receptors transiently expressed on CHO cells; format: cell-based
[7] = target: T2, Delta-type opioid receptor; assay: Binding affinity to Opioid receptor delta 1 by competitive inhibition of radioligand [3H]DPDPE using cloned receptors transiently expressed on CHO cells; format: cell-based, Cavia porcellus

Row | SMILES | IC50 [4] [nM] | Ki [5] [nM] | Ki [6] [nM] | Ki [7] [nM] | also measured
1 | CC[C@H](C)[C@H](NC(=O)[C@H](CCCNC(=N)N)NC(=O)[C@@H]1CCCNC(=O)C[C@@H](NC(=O)CNC(=O)[C@@H](N)Cc2ccc(O)cc2)C(=O)N[C@@H](Cc2ccccc2)C(=O)N[C@@H](CC(C)C)C(=O)N1)C(=O)N[C@@H](CCCNC(=N)N)C(=O)N1CCC[C@H]1C(=O)N[C@@H](CCCCN)C(=O)N[C@@H](CC(C)C)C(=O)N[C@@H](CCCCN)C(N)=O | 2700 | – | – | – | Ki [1]: 200 nM; Ki [2]: 320 nM; Ki [3]: 320 nM
2 | CC[C@H](C)[C@H](NC(=O)[C@H](CCCNC(=N)N)NC(=O)[C@H](CCCNC(=N)N)NC(=O)[C@H](CC(C)C)NC(=O)[C@H](Cc1ccccc1)NC(=O)[C@@H](CC(=O)O)NC(=O)CNC(=O)[C@@H](N)Cc1ccc(O)cc1)C(=O)N[C@@H](CCCNC(=N)N)C(=O)N1CCC[C@H]1C(=O)N[C@@H](CCCCN)C(=O)N[C@@H](CC(C)C)C(=O)N[C@@H](CCCCN)C(N)=O | 440 | 28 | 180 | 430 | –
3 | CC[C@H](C)[C@H](NC(=O)[C@H](CCCNC(=N)N)NC(=O)[C@@H]1CNC(=O)C[C@@H](NC(=O)CNC(=O)[C@@H](N)Cc2ccc(O)cc2)C(=O)N[C@@H](Cc2ccccc2)C(=O)N[C@@H](CC(C)C)C(=O)N1)C(=O)N[C@@H](CCCNC(=N)N)C(=O)N1CCC[C@H]1C(=O)N[C@@H](CCCCN)C(=O)N[C@@H](CC(C)C)C(=O)N[C@@H](CCCCN)C(N)=O | 1000 | – | – | – | Ki [1]: 480 nM; Ki [2]: 2800 nM; Ki [3]: 910 nM
4 | CC[C@H](C)[C@H](NC(=O)[C@H](CCCNC(=N)N)NC(=O)[C@H](CN)NC(=O)[C@H](CC(C)C)NC(=O)[C@H](Cc1ccccc1)NC(=O)[C@@H](CC(=O)O)NC(=O)CNC(=O)[C@@H](N)Cc1ccc(O)cc1)C(=O)N[C@@H](CCCNC(=N)N)C(=O)N1CCC[C@H]1C(=O)N[C@@H](CCCCN)C(=O)N[C@@H](CC(C)C)C(=O)N[C@@H](CCCCN)C(N)=O | 2800 | – | – | – | Ki ([1]; cos-7): 300 nM; Ki ([2]; cos-7): 1300 nM; Ki ([3]; cos-7): 100 nM
5 | CC[C@H](C)[C@@H]1NC(=O)[C@H](CCCNC(=N)N)NC(=O)[C@H](NC(=O)[C@H](CC(C)C)NC(=O)[C@H](Cc2ccccc2)NC(=O)CNC(=O)CNC(=O)[C@@H](N)Cc2ccc(O)cc2)CC(=O)NCC[C@@H](C(=O)N2CCC[C@H]2C(=O)N[C@@H](CCCCN)C(=O)N[C@@H](CC(C)C)C(=O)N[C@@H](CCCCN)C(N)=O)NC1=O | – | 2.5 | 4.8 | 180 | –
6 | CC[C@H](C)[C@@H]1NC(=O)[C@H](CCCN=C(N)N)NC(=O)[C@H](NC(=O)[C@H](CC(C)C)NC(=O)[C@H](Cc2ccccc2)NC(=O)CNC(=O)CNC(=O)[C@@H](N)Cc2ccc(O)cc2)CC(=O)N[C@H](C(=O)N2CCC[C@H]2C(=O)N[C@@H](CCCCN)C(=O)N[C@@H](CC(C)C)C(=O)N[C@@H](CCCCN)C(=O)O)CCNC1=O | 22 | – | – | – | –
7 | CC[C@H](C)[C@@H]1NC(=O)[C@H](CCCN=C(N)N)NC(=O)[C@H](NC(=O)[C@H](CC(C)C)NC(=O)[C@H](Cc2ccccc2)NC(=O)CNC(=O)CNC(=O)[C@@H](N)Cc2ccc(O)cc2)CC(=O)N[C@H](C(=O)N2CCC[C@H]2C(=O)N[C@@H](CCCCN)C(=O)N[C@@H](CC(C)C)C(=O)N[C@@H](CCCCN)C(=O)O)CNC1=O | 46 | – | – | – | –
8 | CC[C@H](C)[C@@H]1NC(=O)[C@H](CCCNC(=N)N)NC(=O)[C@H](NC(=O)[C@H](CC(C)C)NC(=O)[C@H](Cc2ccccc2)NC(=O)CNC(=O)CNC(=O)[C@@H](N)Cc2ccc(O)cc2)CC(=O)NC[C@@H](C(=O)N2CCC[C@H]2C(=O)N[C@@H](CCCCN)C(=O)N[C@@H](CC(C)C)C(=O)N[C@@H](CCCCN)C(N)=O)NC1=O | – | – | – | – | Ki ([5]; cho): 2.6 nM; Ki ([6]; cho): 4.4 nM; Ki ([7]; cho): 48 nM
9 | CC(C)C[C@H](NC(=O)[C@H](CCCCN)NC(=O)[C@@H]1CCCN1C(=O)[C@H](CCCNC(=N)N)NC(=O)[C@@H]1CCNC(=O)C[C@@H](NC(=O)[C@H](Cc2ccccc2)NC(=O)CNC(=O)CNC(=O)[C@@H](N)Cc2ccc(O)cc2)C(=O)N[C@@H](CCCNC(=N)N)C(=O)N[C@@H](CCCNC(=N)N)C(=O)N1)C(=O)N[C@@H](CCCCN)C(N)=O | – | 14 | 40 | 4100 | –
10 | CC(C)C[C@H](NC(=O)[C@H](CCCCN)NC(=O)[C@@H]1CCCN1C(=O)[C@H](CCCN=C(N)N)NC(=O)[C@@H]1CCNC(=O)[C@H](CCCN=C(N)N)NC(=O)[C@H](CCCN=C(N)N)NC(=O)[C@H](NC(=O)[C@H](Cc2ccccc2)NC(=O)CNC(=O)CNC(=O)[C@@H](N)Cc2ccc(O)cc2)CC(=O)N1)C(=O)N[C@@H](CCCCN)C(=O)O | 1300 | – | – | – | –
11 | CC[C@H](C)[C@H](NC(=O)[C@H](CCCNC(=N)N)NC(=O)[C@H](CCCNC(=N)N)NC(=O)[C@@H](CC(=O)O)NC(=O)[C@H](Cc1ccccc1)NC(=O)CNC(=O)CNC(=O)[C@@H](N)Cc1ccc(O)cc1)C(=O)N[C@@H](CCCNC(=N)N)C(=O)N1CCC[C@H]1C(=O)N[C@@H](CCCCN)C(=O)N[C@@H](CC(C)C)C(=O)N[C@@H](CCCCN)C(N)=O | – | 58 | 6.1 | 1300 | –
12 | CC[C@H](C)[C@H](NC(=O)[C@H](CCCNC(=N)N)NC(=O)[C@H](CCCNC(=N)N)NC(=O)[C@@H](CC(=O)O)NC(=O)[C@H](Cc1ccccc1)NC(=O)CNC(=O)CNC(=O)[C@@H](N)Cc1ccc(O)cc1)C(=O)N[C@@H](CCCNC(=N)N)C(=O)N1CCC[C@H]1C(=O)N[C@@H](CCCCN)C(=O)N[C@@H](CC(C)C)C(=O)N[C@@H](CCCCN)C(=O)O | 1400 | – | – | – | –
13 | CC(C)C[C@H](NC(=O)[C@H](CCCCN)NC(=O)[C@@H]1CCCN1C(=O)[C@H](CCCNC(=N)N)NC(=O)[C@H](CN)NC(=O)[C@H](CCCNC(=N)N)NC(=O)[C@H](CCCNC(=N)N)NC(=O)[C@@H](CC(=O)O)NC(=O)[C@H](Cc1ccccc1)NC(=O)CNC(=O)CNC(=O)[C@@H](N)Cc1ccc(O)cc1)C(=O)N[C@@H](CCCCN)C(N)=O | – | 20 | 8.3 | 1600 | –
14 | CC[C@H](C)[C@H](NC(=O)[C@H](CCCNC(=N)N)NC(=O)[C@@H](CC(=O)O)NC(=O)[C@H](CC(C)C)NC(=O)[C@H](Cc1ccccc1)NC(=O)CNC(=O)CNC(=O)[C@@H](N)Cc1ccc(O)cc1)C(=O)N[C@@H](CN)C(=O)N1CCC[C@H]1C(=O)N[C@@H](CCCCN)C(=O)N[C@@H](CC(C)C)C(=O)N[C@@H](CCCCN)C(N)=O | 74 | – | – | – | Ki ([5]; cho): 12 nM; Ki ([6]; cho): 1.5 nM; Ki ([7]; cho): 8.2 nM
15 | CC[C@H](C)[C@H](NC(=O)[C@H](CCCNC(=N)N)NC(=O)[C@@H](CC(=O)O)NC(=O)[C@H](CC(C)C)NC(=O)[C@H](Cc1ccccc1)NC(=O)CNC(=O)CNC(=O)[C@@H](N)Cc1ccc(O)cc1)C(=O)N[C@@H](CCCNC(=N)N)C(=O)N1CCC[C@H]1C(=O)N[C@@H](CCCCN)C(=O)N[C@@H](CC(C)C)C(=O)N[C@@H](CCCCN)C(N)=O | 29 | 8 | 1.2 | 22 | –
16 | CC(C)C[C@H](NC(=O)[C@H](CCCCN)NC(=O)[C@@H]1CCCN1C(=O)[C@H](CCCNC(=N)N)NC(=O)[C@@H]1CNC(=O)C[C@@H](NC(=O)[C@H](Cc2ccccc2)NC(=O)CNC(=O)CNC(=O)[C@@H](N)Cc2ccc(O)cc2)C(=O)N[C@@H](CCCNC(=N)N)C(=O)N[C@@H](CCCNC(=N)N)C(=O)N1)C(=O)N[C@@H](CCCCN)C(N)=O | – | 8 | 75 | 3300 | –
17 | CC(C)C[C@H](NC(=O)[C@H](CCCCN)NC(=O)[C@@H]1CCCN1C(=O)[C@H](CCCN=C(N)N)NC(=O)[C@@H]1CNC(=O)[C@H](CCCN=C(N)N)NC(=O)[C@H](CCCN=C(N)N)NC(=O)[C@H](NC(=O)[C@H](Cc2ccccc2)NC(=O)CNC(=O)CNC(=O)[C@@H](N)Cc2ccc(O)cc2)CC(=O)N1)C(=O)N[C@@H](CCCCN)C(=O)O | > 5000 | – | – | – | –
18 | CC[C@H](C)[C@@H]1NC(=O)[C@H](CCCNC(=N)N)NC(=O)[C@H](NC(=O)[C@H](CC(C)C)NC(=O)[C@H](Cc2ccccc2)NC(=O)CNC(=O)CNC(=O)[C@@H](N)Cc2ccc(O)cc2)CC(=O)NCCC[C@@H](C(=O)N2CCC[C@H]2C(=O)N[C@@H](CCCCN)C(=O)N[C@@H](CC(C)C)C(=O)N[C@@H](CCCCN)C(N)=O)NC1=O | 6.8 | 1.5 | 3.2 | 28 | –
19 | CC(C)C[C@H](NC(=O)[C@H](CCCCN)NC(=O)[C@@H]1CCCN1C(=O)[C@H](CCCN=C(N)N)NC(=O)[C@@H]1CCCNC(=O)[C@H](CCCN=C(N)N)NC(=O)[C@H](CCCN=C(N)N)NC(=O)[C@H](NC(=O)[C@H](Cc2ccccc2)NC(=O)CNC(=O)CNC(=O)[C@@H](N)Cc2ccc(O)cc2)CC(=O)N1)C(=O)N[C@@H](CCCCN)C(=O)O | 530 | – | – | – | –
20 | CC(C)C[C@H](NC(=O)[C@H](CCCCN)NC(=O)[C@@H]1CCCN1C(=O)[C@H](CCCNC(=N)N)NC(=O)[C@@H]1CCCNC(=O)C[C@@H](NC(=O)[C@H](Cc2ccccc2)NC(=O)CNC(=O)CNC(=O)[C@@H](N)Cc2ccc(O)cc2)C(=O)N[C@@H](CCCNC(=N)N)C(=O)N[C@@H](CCCNC(=N)N)C(=O)N1)C(=O)N[C@@H](CCCCN)C(N)=O | – | 12 | 62 | 1900 | –
21 | CC[C@H](C)[C@H](NC(=O)[C@H](CCCNC(=N)N)NC(=O)[C@H](CCCNC(=N)N)NC(=O)[C@H](CC(C)C)NC(=O)[C@H](Cc1ccccc1)NC(=O)CNC(=O)CNC(=O)[C@@H](N)Cc1ccc(O)cc1)C(=O)N[C@@H](CCCNC(=N)N)C(=O)N1CCC[C@H]1C(=O)N[C@@H](CCCCN)C(=O)N[C@@H](CC(C)C)C(=O)N[C@@H](CCCCN)C(=O)O [ANALOG OF DYNORPHIN A] | 0.19 | 0.31 | 0.92 | 28.4 | –
